Entries after “also recorded” stand apart in the source; their conditions may differ.
Assay: not given
Design: method as in Ru et al., 2014
Conditions: obtained from TCMSP database; ref Ru et al., 2014; cited from earlier work
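Wherever BBB (blood–brain–barrier) is given: unitless TCMSP predicted score with screening cut-off BBB at least 0.3.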

Compound	BBB (blood–brain–barrier)	OB% (oral bioavailability)
COc1cc(O)cc2c1[C@@H]1Oc3c(ccc(O)c3CC=C(C)C)[C@@H]1CO2 [1-methoxyphaseollidin]	0.48	69.98%
COc1ccc(C2COc3c(ccc4c3C=CC(C)(C)O4)C2)c(O)c1O (stereo not drawn) [3′-hydroxy-4′-O-methylglabridin]	0.73	43.71%
COc1c(O)ccc(C2COc3c(ccc4c3C=CC(C)(C)O4)C2)c1O (stereo not drawn) [3′-methoxyglabridin]	0.47	46.16%
COc1c2c(cc3oc(C)cc(=O)c13)OC(C(C)(C)O[C@@H]1O[C@H](CO)[C@@H](O)[C@H](O)[C@H]1O)C2 (stereo partly drawn) [5-O-Methylviscumaboloside]	0.56	32.47%
CC(C)[C@@H](C)/C=C/[C@@H](C)[C@H]1CC[C@H]2C3=CC[C@H]4C[C@@H](O)CC[C@]4(C)[C@H]3CC[C@]12C [5-dihydroergosterol]	0.91	43.51%
CCCCC[C@H](O)CC(=O)CCc1ccc(O)c(OC)c1 [6-Gingerol]	1.22	61.22%
COc1ccc2c(=O)c(-c3ccccc3)c(C)oc2c1 [7-methoxy-2-methyl isoflavone]	0.56	42.56%
CCCCCCC=CCC=CCCCCCCCCC(=O)O [10,13-eicosadienoic acid]	0.82	39.99%
CCC(CC[C@@H](C)[C@H]1CC[C@H]2[C@@H]3CCC4=CC(=O)CC[C@]4(C)[C@H]3CC[C@]12C)C(C)C (stereo partly drawn) [24-ethylcholest-4-en-3-one]	1.22	36.08%
CC(C)=CCOc1c2occc2cc2ccc(=O)oc12 [Ammidin]	0.92	34.55%
C=C(C(=O)OC1CC2NC(C1)C1OC21)c1ccccc1 (stereo not drawn) [Aponorhyoscine]	0.40	66.65%
CCCCC/C=C\C/C=C\C/C=C\C/C=C\CCCC(=O)O [Arachidonate]	0.58	45.57%
CC[C@H](CC[C@@H](C)[C@H]1CC[C@H]2[C@@H]3CC=C4C[C@@H](O)CC[C@]4(C)[C@H]3CC[C@]12C)C(C)C [Beta-sitosterol]	0.99	
CCCCCCCCOC(=O)c1ccccc1C(=O)OCCCC [Butyl octyl phthalate]	0.60	43.74%
COc1cc2c(cc1OC)[C@H]1[C@@H](C)c3ccc4c(c3CN1CC2)OCO4 [Cavidine]	0.63	35.64%
O=C(/C=C/c1ccc(O)c(O)c1)O[C@@H]1C[C@](O)(C(=O)O)C[C@@H](O)[C@H]1O [Chlorogenic acid]	0.94	30.70%
CC[C@@H](CC[C@@H](C)[C@H]1CC[C@H]2[C@@H]3CC=C4C[C@@H](O)CC[C@]4(C)[C@H]3CC[C@]12C)C(C)C [Clionasterol]	1.14	
C=C[C@H]1CN2CC[C@]3(C(=O)Nc4ccccc43)[C@@H]2C[C@@H]1/C(=C\OC)C(=O)OC [Corynoxeine]	0.50	57.13%
CC(C)=CCC[C@@H](C)[C@H]1CC[C@@]2(C)[C@@H]3CC[C@H]4C(C)(C)[C@@H](O)CC[C@@]45C[C@@]35CC[C@]12C [Cycloartenol]	1.33	
COc1cc(CNC(=O)CCCCCCC(C)C)ccc1O [Dihydrocapsaicin]	0.47	47.07%
CC(C)[C@@H](C)/C=C/[C@@H](C)[C@H]1CC[C@@H]2[C@]1(C)CC[C@H]1[C@]23C=C[C@]2(C[C@@H](O)CC[C@]12C)OO3 [Ergosterol peroxide]	0.34	40.36%
O=c1oc2ccccc2c2oc3ccccc3c(=O)c12 [Frutinone A]	0.46	65.90%
CC(C)=CCc1c(O)cc(O)c2c1O[C@H](c1ccccc1)CC2=O [Glabranin]	0.31	52.90%

Compound	BBB (blood–brain–barrier)	OB% (oral bioavailability)
CC1(C)C=Cc2c(ccc3c2OC[C@@H](c2ccc(O)cc2O)C3)O1 [Glabridin]	0.36	53.25%
CC1(C)[C@@H](O[C@H]2O[C@H](C(=O)O)[C@@H](O)[C@H](O)[C@H]2O[C@@H]2O[C@H](C(=O)O)[C@@H](O)[C@H](O)[C@H]2O)CC[C@]2(C)[C@H]3C(=O)C=C4[C@@H]5C[C@@](C)(C(=O)O)CC[C@]5(C)CC[C@@]4(C)[C@]3(C)CC[C@@H]12 [Glycyrrhizic acid]	0.80	30.70%
CC1(C)CC[C@]2(C(=O)O)CC[C@]3(C)C(=CC[C@@H]4[C@@]5(C)CC[C@H](O)[C@@](C)(CO)[C@@H]5CC[C@]43C)[C@@H]2C1 [Hederagenin]	0.96	
CC[C@H]1CN2CCc3c([nH]c4ccccc34)[C@H]2C[C@@H]1/C(=C\OC)C(=O)OC [Hirsutine]	0.78	34.44%
CCCCCCCCCCCCCCC=CCCCC(=O)O [Icos-5-enoic acid]	1.09	30.70%
Oc1ccc2c(c1)OC[C@H]1c3cc4c(cc3O[C@@H]21)OCO4 [Inermin]	0.36	65.83%
Oc1ccc2c(c1)OC[C@H]1c3cc4c(cc3O[C@@H]21)OCO4 [Inermine]	0.40	75.18%
CC(C)=CCOc1c2ccoc2cc2oc(=O)ccc12 [Isoimperatorin]	0.66	45.46%
CC[C@H]1CN2CC[C@@]3(C(=O)Nc4ccccc43)[C@@H]2C[C@@H]1/C(=C\OC)C(=O)OC [Isorhyncophylline]	0.33	47.31%
CCCCC/C=C\C/C=C\CCCCCCCC(=O)OCC [Mandenol]	1.14	42.00%
CCCCCC=CCC=CCCCCCCCCCC(=O)OC [Methyl icosa-11,14-dienoate]	1.10	39.67%
CC1(C)C=Cc2c(ccc([C@@H]3COc4cc(O)ccc4C3)c2O)O1 [Phaseolinisoflavan]	0.46	32.01%
COc1c2ccoc2c(OCC=C(C)C)c2oc(=O)ccc12 [Phellopterin]	0.48	40.19%
COc1c2ccoc2c(OCC=C(C)C)c2oc(=O)ccc12 [Phelloptorin]	0.43	43.39%
CC(C)=CCc1c2ccoc2c(O)c2oc(=O)ccc12 [Prangenidin]	0.50	36.31%
CC1(C)C=Cc2c(ccc3c2OC[C@H]2c4ccc(O)cc4O[C@@H]32)O1 [Shinpterocarpin]	0.68	80.30%
CC[C@H](CC[C@@H](C)[C@H]1CC[C@H]2[C@@H]3CC=C4C[C@@H](O)CC[C@]4(C)[C@H]3CC[C@]12C)C(C)C [Sitosterol]	0.87	
CC[C@H](/C=C/[C@@H](C)[C@H]1CC[C@H]2[C@@H]3CC=C4C[C@@H](O)CC[C@]4(C)[C@H]3CC[C@]12C)C(C)C [Stigmasterol]	1.00	43.83%
COC(=O)C1=CO[C@@H](C)[C@@H]2CN3CCc4c([nH]c5ccccc45)[C@@H]3C[C@H]12 [Tetrahydroalstonine]	0.33	32.42%
CC1(C)C=Cc2cc([C@@H]3CC(=O)c4ccc5c(c4O3)C=CC(C)(C)O5)ccc2O1 [Xambioona]	0.52	54.85%
C=C[C@H]1CN2CCc3c([nH]c4ccccc34)[C@H]2C[C@@H]1/C(=C\OC)C(=O)OC [delta (sup 18)-Hirsutine]	0.76	41.64%
Medicarpin	0.53	49.22%

Assay: Pharmacokinetics and brain tissue distribution after gavage of GTS (UPLC-MS)
Format: in vivo, Babl/c mice
Conditions: mice, after oral administration of GTS
Protocol: Animal experiments: Babl/c mice weighing 18–22 g (6–8 weeks old) with equal numbers of males and females, were provided by the Experimental Animal Center of Southern Medical University. The mice were maintained at room temperature (20 ± 2) °C, humidity (60 ± 5)%, 12 h light cycles, and provided an ad libitum diet. Thirty mice were randomly divided into 0.5, 2, 4, 6 and 9 h groups, with 6 mice each. An infusion at concentration of 2.75 g of GTS crude drug/mL was obtained, and the drug was administered by gavage at a dose of 2 mL GTS infusion drug/kg. After 0.5, 2, 4, 6 and 9 h of administration, the plasma and brain tissues in the 0.5, 2, 4, 6 and 9 h groups were collected. The plasma and brain tissue samples were processed in accordance with biological sample processing procedures.
Establishment of UPLC-MS method: An LCMS-8050 liquid chromatography mass spectrometer (Shimadzu, Japan) was operated with a horizon C18 column (100 × 2.1 mm, 3 µm). The mobile phase was 0.1% formic acid in water (A) - acetonitrile (B), and the gradient elution was 0–8 min, 10%–50% B; 8–9 min, 50%–10% B; 9–11 min, 10% B. The column temperature was 30°C, the injection volume was 5 μL, and flow rate was 0.4 mL min^−1. The mass spectrometry conditions included HPLC-MS/MS in […] full-scan and sub-ion scanning modes, an electrospray ionization source (ESI), positive and negative ion mode detection, and nebulizing gas of nitrogen (N2). The zeroed gas flow rate was 3 L min^−1, desolventization temperature was 526°C, and DL temperature was 250°C. Then the parent ion, daughter ion, collision energy, and polarity of the above components were determined (Table 2).

Compound	exposure in plasma and brain	detection in brain tissues	detection in plasma
COc1c2c(cc3oc(C)cc(=O)c13)OC(C(C)(C)O[C@@H]1O[C@H](CO)[C@@H](O)[C@H](O)[C@H]1O)C2 (stereo partly drawn) [5-O-Methylviscumaboloside]	exposed in the plasma and brain		
O=C(/C=C/c1ccc(O)c(O)c1)O[C@@H]1C[C@](O)(C(=O)O)C[C@@H](O)[C@H]1O [Chlorogenic acid]	exposed in the plasma and brain; also recorded: absorbed into the bloodstream and distributed to brain tissues		
CC1(C)[C@@H](O[C@H]2O[C@H](C(=O)O)[C@@H](O)[C@H](O)[C@H]2O[C@@H]2O[C@H](C(=O)O)[C@@H](O)[C@H](O)[C@H]2O)CC[C@]2(C)[C@H]3C(=O)C=C4[C@@H]5C[C@@](C)(C(=O)O)CC[C@]5(C)CC[C@@]4(C)[C@]3(C)CC[C@@H]12 [Glycyrrhizic acid]		undetectable	detectable in plasma and at high levels

Same assay, conditions: mice, gavage of GTS infusion (2.75 g crude drug/mL, 2 mL/kg); sampling 0.5, 2, 4, 6, 9 h

Compound	time at which concentration in brain peaked
COc1c2c(cc3oc(C)cc(=O)c13)OC(C(C)(C)O[C@@H]1O[C@H](CO)[C@@H](O)[C@H](O)[C@H]1O)C2 (stereo partly drawn) [5-O-Methylviscumaboloside]	6 h

— paper PMC11634579, “Network pharmacology, experimental validation and pharmacokinetics integrated strategy to reveal pharmacological mechanism of goutengsan on methamphetamine dependence” (Frontiers in Pharmacology, 2024)
